Holding throughout (format): cell-based, human
In assay [1] the test system is Smad1/5 and Smad2 phosphorylation in 19-9-11 ishcat cells. Briefly: Smad1/5 and Smad2 phosphorylation, western blot. Conditions: 12 μM CH treatment. As for the experimental part:
Western Blot Analysis: Cells were lysed in M-PER Mammalian Protein Extraction Reagent (Pierce) in the presence of Halt Protease and Phosphatase Inhibitor Cocktail (Pierce). Proteins were separated by 10% Tris-Glycine SDS/PAGE (Invitrogen) under denaturing conditions and transferred to a nitrocellulose membrane. After blocking with 5% milk in TBST, the membrane was incubated with primary antibody overnight at 4° C. The membrane was then washed, incubated with an anti-mouse/rabbit peroxidase-conjugated secondary antibody (1:1000, Cell Signaling) at room temperature for 1 hr, and developed by SuperSignal chemiluminescence (Pierce).
To determine whether canonical Wnt signaling requires TGFβ superfamily signaling to induce cardiogenesis, the inventors quantified cTnT+ cell generation in 19-9-11 ishcat-2 cells when Activin A and BMP4 signaling antagonists were presented during the first 24 hr of cardiomyocyte induction with 12 μM CH. All samples were treated with dox at 48 hours. […] To further investigate the role of TGFβ superfamily signaling in Wnt pathway-mediated cardiogenesis the inventors assessed Smad1/5 and Smad2 phosphorylation, downstream of BMP4 and Activin A signaling respectively. As expected, substantial Smad1/5 and Smad2 phosphorylation was detected in cells that had been treated with Activin A and BMP4 (FIGS. 9B and 10A).
A general note: In western blotting, separated proteins are transferred to a membrane and probed.

For assay [2], the system named is TCF/LEF promoter activity in H9-7TGP cells. Briefly: 7TGP TCF/LEF promoter-reporter (GFP) assay after CH treatment. The source says:
In order to probe the activation of canonical Wnt/β-catenin signaling during hPS cell specification to cardiomyocytes, the inventors generated a series of promoter-reporter cell lines in H1 and H9 hESC, and 19-9-11 human iPSC lines. These reporter lines, integrated with a lentiviral 7TGP vector, express GFP under control of a consensus TCF/LEF binding sequence promoter which reports β-catenin activation (FIG. 2A) (Fuerer and Nusse, PLoS One 5:e9370 (2010)). […] Approximately 50% of H9-7TGP cells expressed GFP at 4 days post-addition of 15 μM CH.

In assay [3] the test system is 19-9-11 shcat-2 and scramble lines. Briefly: Nanog/Isl1 immunostaining of CH-treated 19-9-11 shcat-2 and scramble lines. As to the method:
Immunostaining: Cells were fixed with 4% paraformaldehyde for 15 min at room temperature and then stained with primary and secondary antibodies in PBS plus 0.4% Triton X-100 and 5% non-fat dry milk (Bio-Rad). Nuclei were stained with Gold Anti-fade Reagent with DAPI (Invitrogen). An epifluorescence microscope (Leica DM IRB) with a QImaging® Retiga 4000R camera was used for imaging analysis. To test whether induction of cardiomyocyte differentiation by GSK3 inhibitors requires β-catenin, the inventors treated the shcat-2 and scramble 19-9-11 lines with CH in mTeSR1 medium. While the shcat-2 line maintained an undifferentiated morphology, the scramble line appeared to undergo differentiation (FIG. 2E), similar to non-transduced lines treated with CH (FIGS. 1B and 2B). Induction of differentiation following CH treatment in the scramble control was further indicated by diminished SOX2 and NANOG expression at day 4 (FIG. 3C). […] After 4 days of CH treatment in mTeSR1, the percentage of cells expressing Oct4 decreased to 61% in the scramble line, while 98% of the shcat-2 cells expressed Oct4 (FIG. 3D). […] To better understand early mesoderm induction via GSK3 inhibition, the inventors analyzed expression of the early mesoderm gene T in scramble and shcat-2 19-9-11 lines. As CH concentration increased, the ratio of T expression in scramble to the shcat-2 line increased (FIG. 3E). […]

For assay [4], the system named is BMP2, BMP4 and NODAL expression in 19-9-11 ishcat-2 cells. Briefly: RT-PCR of TGFβ pathway genes during CH-induced differentiation. The conditions noted are these: upon 12 μM CH treatment. As for the experimental part:
RT-PCR and Quantitative RT-PCR: Total RNA was prepared with the RNeasy mini kit (QIAGEN) and treated with DNase (QIAGEN). 1 μg RNA was reverse transcribed into cDNA via Oligo (dT) with Superscript III Reverse Transcriptase (Invitrogen). Real-time quantitative PCR was done in triplicate with iQ SYBR Green SuperMix (Bio-Rad). RT-PCR was done with Gotaq Master Mix (Promega) and then subjected to 2% agarose gel electrophoresis. ACTB was used as an endogenous control. To determine whether canonical Wnt signaling requires TGFβ superfamily signaling to induce cardiogenesis, the inventors quantified cTnT+ cell generation in 19-9-11 […]-2 cells when Activin A and BMP4 signaling antagonists were presented during the first 24 hr of cardiomyocyte induction with 12 μM CH. All samples were treated with dox at 48 hours. […] To further investigate the role of TGFβ superfamily signaling in Wnt pathway-mediated cardiogenesis the inventors assessed Smad1/5 and Smad2 phosphorylation, downstream of BMP4 and Activin A signaling respectively. As expected, substantial Smad1/5 and Smad2 phosphorylation was detected in cells that had been treated with Activin A and BMP4 (FIGS. 9B and 10A).

SMILES strings stand for the structures.

On to `Cc1c[nH]c(-c2cnc(NCCNc3ccc(C#N)cn3)nc2-c2ccc(Cl)cc2Cl)n1` [CH], for which the “Smad1/5 and Smad2 activation” value in assay [1] is “levels comparable to those induced by Activin A and BMP4”. The “H9-7TGP cells expressing GFP” value in assay [2] (15 μM CH, 4 days post-addition) is given as “Approximately 50%”. Besides, the TCF/LEF promoter activity entry in assay [2] (H9-7TGP reporter line, CH in mTeSR1 for 4 days) is “activated TCF/LEF promoter activity in a CH concentration-dependent manner”. The Nanog/Isl1 immunostaining entry was “substantial numbers of Nanog−/Isl1+ cells” in assay [3] (scramble cell line, 15 μM CH in mTeSR1 for 4 days) and “only Nanog+/Isl1− cells” in assay [3] (shcat-2 cells treated with CH). Moreover, the NODAL expression entry in assay [4] was “transient upregulation”. In addition, in assay [4] (throughout differentiation), the “BMP2 and BMP4 gene expression” value is on record as “gradually upregulated”.

For the origin of these results see patent US9663764B2, “Generation of cardiomyocytes from human pluripotent stem cells” (Wisconsin Alumni Research Foundation, priority 2011, dated 2017).
